# Reference: patent US20210284618A1, “FURANOCHALCONES AS INHIBITORS OF CYP1A1, CYP1A2 AND CYP1B1 FOR CANCER CHEMOPREVENTION” (Council of Scientific & Industrial Research, priority 2016, published 2021)
# Key:
# [1] = molecular target: T1, CYP1B1 (Homo sapiens, UniProt Q16678); assay: In-vitro CYP450 1B1 enzyme inhibition in Saccharosomes; format: biochemical; set-up: purchased CYP Design Ltd; host or cells: yeast microsomes (Saccharosomes); conditions: human, Saccharosomes (yeast-derived) with recombinant CYP1B1, probe 7-ethoxyresorufin (5 μl of 0.1 mM), % inhibition of CYP1B1 in Saccharosomes at 10 μM, 10 μM test compound, 7-ethoxyresorufin
# T1 sequence (Q16678 1-543): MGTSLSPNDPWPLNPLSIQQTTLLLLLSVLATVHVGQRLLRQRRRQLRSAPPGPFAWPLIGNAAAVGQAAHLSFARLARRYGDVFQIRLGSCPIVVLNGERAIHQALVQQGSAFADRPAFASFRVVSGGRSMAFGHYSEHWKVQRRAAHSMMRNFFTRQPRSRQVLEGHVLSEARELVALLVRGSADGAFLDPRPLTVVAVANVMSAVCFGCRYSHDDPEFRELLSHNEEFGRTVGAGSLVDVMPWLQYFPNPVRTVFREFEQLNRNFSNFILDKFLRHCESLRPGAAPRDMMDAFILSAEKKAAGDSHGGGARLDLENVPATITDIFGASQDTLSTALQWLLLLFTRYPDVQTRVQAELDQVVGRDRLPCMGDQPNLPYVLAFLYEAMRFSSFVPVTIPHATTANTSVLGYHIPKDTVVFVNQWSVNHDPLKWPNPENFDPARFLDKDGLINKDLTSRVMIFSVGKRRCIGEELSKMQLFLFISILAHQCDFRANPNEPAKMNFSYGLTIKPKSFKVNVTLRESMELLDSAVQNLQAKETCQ
# Procedure: Example 24. In-vitro CYP450 1B1 enzyme inhibition in Saccharosomes™: Regenerating system consists of: 5 μl Solution A (183 mg of NADP++183 mg of glucose-6-phosphate+654 μl of 1.0 M magnesium chloride solution+9.15 ml of sterile ultra-pure water)+1 μl Solution B (250 Units of glucose-6-phosphate dehydrogenase+6.25 ml of 5 mM sodium citrate; mixed in a tube and made up to 10 ml with sterile ultra-pure water)+39 μl 0.2 M Kpi (0.6 ml of 1.0M K2HPO4+9.4 ml of 1.0 M KH2PO4 were mixed and made up to 50 ml with sterile ultra-pure water)+5 μl potential inhibitory compound.
# (§1) Example 25. IC50 determination for best compound against CYP1A1, CYP1B1 and other CYPs in Saccharosomes. Compounds were serially diluted to six different concentrations with 10% DMSO in a Sero-Well white microplate. The experiment was performed in a similar way as described above in examples 23 and 24.
# [2] = molecular target: T1, CYP1B1; assay: CYP1B1 inhibition in live human cells (HEK293); format: cell-based
# [3] = molecular target: T2, CYP1A1 (Homo sapiens, UniProt P04798); assay: In-vitro CYP450 1A1 enzyme inhibition in Saccharosomes; format: biochemical; conditions: 10 μM test compound, 5 μM ethoxyresorufin; for inhibition at 20 min, 10 μM: human, Saccharosomes containing CYP1A1, pH 7.4, probe ethoxyresorufin (5 μM), % inhibition of CYP1A1 in Saccharosomes at 10 μM
# T2 construct: host or cells: yeast microsomes (Saccharosomes)
# T2 sequence (P04798 1-512): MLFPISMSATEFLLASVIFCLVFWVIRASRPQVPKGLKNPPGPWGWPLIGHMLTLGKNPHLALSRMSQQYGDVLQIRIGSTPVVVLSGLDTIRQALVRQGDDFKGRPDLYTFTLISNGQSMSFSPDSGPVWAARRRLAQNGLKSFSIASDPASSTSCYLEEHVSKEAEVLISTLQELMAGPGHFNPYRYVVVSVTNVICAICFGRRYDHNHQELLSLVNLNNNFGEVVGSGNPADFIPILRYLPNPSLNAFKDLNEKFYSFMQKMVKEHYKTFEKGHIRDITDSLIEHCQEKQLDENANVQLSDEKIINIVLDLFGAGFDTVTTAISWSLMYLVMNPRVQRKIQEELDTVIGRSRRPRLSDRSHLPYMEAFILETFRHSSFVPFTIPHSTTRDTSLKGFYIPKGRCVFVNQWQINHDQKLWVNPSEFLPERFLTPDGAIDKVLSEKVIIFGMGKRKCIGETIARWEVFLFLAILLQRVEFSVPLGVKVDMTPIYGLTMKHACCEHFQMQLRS
# Procedure: Example 23. In-vitro CYP450 1A1 enzyme inhibition in Saccharosomes™: The screening method utilizes 384-well microplates to rapidly ascertain relative percentage inhibition of CYP1A1 by a library of compounds. Each reaction was performed in black, clear-bottomed 384-well microplates. A reaction volume of 50 μl comprised of 0.5 pmol of the cytochrome P450 CYP1A1 (Saccharosomes), 5 μM of ethoxyresorufin substrate (which contributes 0.05% DMSO to the well), 10 μM of potential inhibitor test article (which contributes 0.5% DMSO to the well), A P450 reductase NADPH regenerating system (1.3 mM NADP+, 3.3 mM glucose-6-0.02 units phosphate and glucose-6-Phosphate dehydrogenase), potassium phosphate buffer (final well concentration 100 mM, pH 7.4) and water. Very small quantities of magnesium chloride and sodium citrate are added to the NADPH regenerating system, in line with standard published protocols. The potential inhibitor (test article) was pre-incubated with CYP1A1 of at least 20 minutes at 30° C. After this period, the remainder of the reagents required in the assay was added to initiate the process. The reaction mixture was incubated for another 20 minutes at 30° C. The reaction was stopped by adding an 80% acetonitrile, 20% 0.5 M Tris solution. The reactions were monitored using the Biotek Synergy HT plate reader by measuring the endpoint reaction at Excitation 530/(25 bandwidth) & Emission 590/(20 bandwidth) using a gain/sensitivity setting of 60. The mean of the quadruplicates of the negative control (solvent inactivated CYP1A1) was deducted from the mean of potential inhibitor (test article) samples. The percentage was then derived relative to the mean of the wells without inhibitor.
# as §1
# [4] = molecular target: T2, CYP1A1; assay: CYP1A1 inhibition in HEK293 cells transfected with pcDNA3.1/CYP1A1 (live cells); format: cell-based; conditions: for inhibition at 10 μM: human, HEK293 cells transfected with pcDNA3.1/CYP1A1 (live cells), probe EROD (5 μM), % inhibition of CYP1A1 in HEK293 cells at 10 μM
# Procedure: Example 26. In-vitro CYP450 inhibition in HEK293 cells transfected with pcDNA3.1/CYP1A1 against 5 μM EROD. […] The HEK293 cells used here was procured from ‘European Collection of Authenticated Cell Cultures’ (catalog number. ECACC 85120602).
Compound,inhibition at 10 μM [1] [%],IC50 [2] [nM],"inhibition at 20 min, 10 μM [3] [%]",IC50 [4] [nM],"inhibition at 10 μM ([4]; 10 μM, 5 μM EROD) [%]",melting point [°C],% inhibition of CYP1A1 in Saccharosomes at 10 μM [3] [%],"% inhibition of CYP1A1 in HEK293 cells at 10 μM ([4]; 10 μM, 5 μM EROD) [%]"
"COc1c(C(=O)/C=C/c2ccc(F)cc2)c(O)c(OC)c2occc12 [Compound 6, 3-(4,7-dimethoxy-6-hydroxybenzofuran-5-yl)-1-(4-fluorophenyl)-3-oxopropene]",49.5,1320,> 80,480,79.6,–,–,–
"COc1c(C(=O)/C=C/c2c(F)c(F)c(F)c(F)c2F)c(O)c(OC)c2occc12 [Compound 15, 3-(4,7-dimethoxy-6-hydroxybenzofuran-5-yl)-1-(2,3,4,5,6 pentafluorophenyl)-3-oxopropene]",–,–,21.9,–,71.6,300 to 301,–,–
"COc1c(C(=O)/C=C/c2ccc(F)c(Br)c2)c(O)c(OC)c2occc12 [Compound 5, 3-(4,7-dimethoxy-6-hydroxybenzofuran-5-yl)-1-(3-bromo-4-fluorophenyl)-3-oxopropene]",–,–,> 80,–,> 80,186 to 188,83.1,82.3
